# Assay results reported in ChEMBL document CHEMBL5537122, “Design, synthesis, and biological evaluation of 4-(2-fluorophenoxy)-7-methoxyquinazoline derivatives as dual EGFR/c-Met inhibitors for the treatment of NSCLC” (Eur J Med Chem, 2024).
# The source made the active and inactive calls. The calls are words filed in the database; no cut-off is given here.
# Experiments:
# [1] = test system: A549; test: Downregulation of phosphorylated c-Met protein expression human A549 cells overexpressing c-MET incubated for 24 hrs by Western blotting analysis; format: functional, cell-based; conditions: dose 1-10 µM
# [2] = test system: NCI-H1975; test: Inhibition of colony formation in human NCI-H1975 cells preincubated for 48 hrs followed by media replacement for every 2 days for 14 days by crystal violet staining based microscopic analysis; format: functional, cell-based; conditions: dose 0.25-2 µM
# [3] = test system: NCI-H1975; test: Induction in apoptosis in human NCI-H1975 cells assessed as viable cells at 1 uM incubated for 24 hrs by Annexin V-FITC/Propidium Iodide staining based flow cytometry analysis (reference value: 91.58 %); format: functional; conditions: read-out: Activity
# [4] = test system: NCI-H1975; test: Induction in apoptosis in human NCI-H1975 cells assessed as necrotic cells at 1 uM incubated for 24 hrs by Annexin V-FITC/Propidium Iodide staining based flow cytometry analysis (reference value: 1.42 %); format: functional
# [5] = test system: L02; test: Induction in apoptosis in human L02 cells assessed as necrotic cells at 1 uM incubated for 24 hrs by Annexin V-FITC/Propidium Iodide staining based flow cytometry analysis (reference value: 6.63 %); format: toxicity, cell-based; conditions: l02, 24 h
# [6] = test system: L02; test: Induction in apoptosis in human L02 cells assessed as late apoptotic cells at 2.5 uM incubated for 24 hrs by Annexin V-FITC/Propidium Iodide staining based flow cytometry analysis (reference value: 0.36 %); format: toxicity, cell-based; conditions: l02, 24 h
# [7] = test system: A549; test: Induction of cell cycle arrest in human A549 cells overexpressing c-MET assessed as accumulation of cells at S phase at 2.5 uM incubated for 24 hrs by RNase A/propidium iodide staining based flow cytometric analysis (reference value: 37.87 %); format: functional
# [8] = test system: PC-9; test: Antimigratory activity against EGF-induced cell migration in serum starved human PC-9 cells assessed as increase in width of artificial gap incubated for 24 hrs by wound healing assay; format: functional, cell-based; conditions: dose 1-2.5 µM
# [9] = test system: A549; test: Downregulation of phosphorylated EGFR protein expression level human A549 cells overexpressing c-MET incubated for 24 hrs by Western blotting analysis; format: functional, cell-based; conditions: dose 1-10 µM
# [10] = test system: A549; test: Downregulation of phosphorylated Akt expression level human A549 cells overexpressing c-MET incubated for 24 hrs by Western blotting analysis; format: functional, cell-based; conditions: dose 0.2-10 µM
# [11] = molecular target: T1, Epidermal growth factor receptor (Homo sapiens, UniProt P00533); test: Inhibition of wild type EGFR (unknown origin) at 10 uM relative to control
# T1 sequence (P00533 whole entry): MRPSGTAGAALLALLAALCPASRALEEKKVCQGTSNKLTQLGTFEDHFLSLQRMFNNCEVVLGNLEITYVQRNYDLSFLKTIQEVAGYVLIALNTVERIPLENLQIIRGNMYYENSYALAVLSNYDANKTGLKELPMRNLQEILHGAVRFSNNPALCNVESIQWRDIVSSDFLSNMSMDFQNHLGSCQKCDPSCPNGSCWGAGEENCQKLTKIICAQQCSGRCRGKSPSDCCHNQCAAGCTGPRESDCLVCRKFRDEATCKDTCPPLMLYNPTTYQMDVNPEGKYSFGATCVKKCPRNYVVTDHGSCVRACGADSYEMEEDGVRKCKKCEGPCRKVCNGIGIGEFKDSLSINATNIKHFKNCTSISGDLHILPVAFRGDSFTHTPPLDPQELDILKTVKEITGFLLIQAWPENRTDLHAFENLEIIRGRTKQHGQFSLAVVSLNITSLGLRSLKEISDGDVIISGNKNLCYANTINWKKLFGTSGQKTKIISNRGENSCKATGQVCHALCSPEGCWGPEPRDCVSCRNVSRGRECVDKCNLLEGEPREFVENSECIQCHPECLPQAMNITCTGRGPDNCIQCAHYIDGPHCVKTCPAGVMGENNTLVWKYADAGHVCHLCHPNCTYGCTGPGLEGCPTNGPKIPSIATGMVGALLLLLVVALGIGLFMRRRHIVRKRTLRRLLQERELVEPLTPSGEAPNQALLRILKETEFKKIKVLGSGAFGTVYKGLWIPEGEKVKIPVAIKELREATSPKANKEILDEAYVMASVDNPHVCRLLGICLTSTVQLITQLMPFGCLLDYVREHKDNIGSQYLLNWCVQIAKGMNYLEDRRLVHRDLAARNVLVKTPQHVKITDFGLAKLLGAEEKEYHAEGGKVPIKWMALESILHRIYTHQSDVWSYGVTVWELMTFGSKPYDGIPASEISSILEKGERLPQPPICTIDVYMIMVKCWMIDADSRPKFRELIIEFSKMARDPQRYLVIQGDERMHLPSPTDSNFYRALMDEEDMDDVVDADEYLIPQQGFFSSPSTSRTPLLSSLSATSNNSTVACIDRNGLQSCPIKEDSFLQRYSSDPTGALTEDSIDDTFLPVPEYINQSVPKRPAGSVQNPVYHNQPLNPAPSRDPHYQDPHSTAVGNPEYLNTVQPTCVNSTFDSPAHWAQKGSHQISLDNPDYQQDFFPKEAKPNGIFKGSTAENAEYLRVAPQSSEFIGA
# [12] = molecular target: Vascular endothelial growth factor receptor 3 (Homo sapiens) (UniProt P35916); test: Inhibition of FLT4 (unknown origin) at 10 uM
# Sequence of Vascular endothelial growth factor receptor 3 (Homo sapiens) (P35916 whole entry): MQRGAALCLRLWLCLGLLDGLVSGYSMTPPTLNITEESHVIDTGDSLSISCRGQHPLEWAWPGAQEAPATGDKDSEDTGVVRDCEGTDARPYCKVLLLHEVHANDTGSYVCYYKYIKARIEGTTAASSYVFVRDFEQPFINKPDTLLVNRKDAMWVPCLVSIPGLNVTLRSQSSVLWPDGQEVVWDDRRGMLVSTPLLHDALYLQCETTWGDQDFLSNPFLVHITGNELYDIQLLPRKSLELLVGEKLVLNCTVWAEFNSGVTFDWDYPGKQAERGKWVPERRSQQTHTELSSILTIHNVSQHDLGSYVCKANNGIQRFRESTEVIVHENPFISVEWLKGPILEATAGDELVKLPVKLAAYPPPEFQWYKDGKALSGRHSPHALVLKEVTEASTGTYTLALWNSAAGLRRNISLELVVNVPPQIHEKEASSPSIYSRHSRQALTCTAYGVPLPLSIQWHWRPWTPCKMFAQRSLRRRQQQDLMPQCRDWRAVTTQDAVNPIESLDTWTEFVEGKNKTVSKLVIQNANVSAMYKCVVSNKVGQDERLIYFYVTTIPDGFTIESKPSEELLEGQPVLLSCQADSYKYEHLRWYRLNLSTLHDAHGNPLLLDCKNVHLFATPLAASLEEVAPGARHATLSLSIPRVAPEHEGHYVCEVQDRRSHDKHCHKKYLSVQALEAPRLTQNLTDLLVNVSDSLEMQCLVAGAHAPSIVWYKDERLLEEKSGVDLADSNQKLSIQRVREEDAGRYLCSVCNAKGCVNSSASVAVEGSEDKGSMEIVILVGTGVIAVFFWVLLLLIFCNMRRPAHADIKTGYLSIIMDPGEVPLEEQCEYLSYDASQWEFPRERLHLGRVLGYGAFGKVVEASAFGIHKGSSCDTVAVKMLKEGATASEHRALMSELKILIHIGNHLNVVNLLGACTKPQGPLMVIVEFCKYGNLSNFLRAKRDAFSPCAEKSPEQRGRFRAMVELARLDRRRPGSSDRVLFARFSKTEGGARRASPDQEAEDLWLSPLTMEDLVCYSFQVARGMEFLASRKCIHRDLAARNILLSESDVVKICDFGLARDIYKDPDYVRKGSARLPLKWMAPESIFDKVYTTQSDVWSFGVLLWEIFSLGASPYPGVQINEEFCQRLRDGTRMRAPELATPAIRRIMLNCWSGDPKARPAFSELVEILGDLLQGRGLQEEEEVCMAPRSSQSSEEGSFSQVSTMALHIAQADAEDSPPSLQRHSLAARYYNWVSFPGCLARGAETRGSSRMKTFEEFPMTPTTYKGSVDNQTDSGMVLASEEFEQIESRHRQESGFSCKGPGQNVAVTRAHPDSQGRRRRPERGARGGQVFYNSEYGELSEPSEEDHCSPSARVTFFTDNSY
# [13] = molecular target: Fibroblast growth factor receptor 4 (Homo sapiens) (UniProt P22455); test: Inhibition of FGFR4 (unknown origin) at 10 uM
# [14] = molecular target: Receptor-type tyrosine-protein kinase FLT3 (Homo sapiens) (UniProt P36888); test: Inhibition of FLT3 (unknown origin) at 10 uM
# [15] = molecular target: ALK tyrosine kinase receptor (Homo sapiens) (UniProt Q9UM73); test: Inhibition of ALK (unknown origin) at 10 uM
# Sequence of ALK tyrosine kinase receptor (Homo sapiens) (Q9UM73 19-1620 limits assumed): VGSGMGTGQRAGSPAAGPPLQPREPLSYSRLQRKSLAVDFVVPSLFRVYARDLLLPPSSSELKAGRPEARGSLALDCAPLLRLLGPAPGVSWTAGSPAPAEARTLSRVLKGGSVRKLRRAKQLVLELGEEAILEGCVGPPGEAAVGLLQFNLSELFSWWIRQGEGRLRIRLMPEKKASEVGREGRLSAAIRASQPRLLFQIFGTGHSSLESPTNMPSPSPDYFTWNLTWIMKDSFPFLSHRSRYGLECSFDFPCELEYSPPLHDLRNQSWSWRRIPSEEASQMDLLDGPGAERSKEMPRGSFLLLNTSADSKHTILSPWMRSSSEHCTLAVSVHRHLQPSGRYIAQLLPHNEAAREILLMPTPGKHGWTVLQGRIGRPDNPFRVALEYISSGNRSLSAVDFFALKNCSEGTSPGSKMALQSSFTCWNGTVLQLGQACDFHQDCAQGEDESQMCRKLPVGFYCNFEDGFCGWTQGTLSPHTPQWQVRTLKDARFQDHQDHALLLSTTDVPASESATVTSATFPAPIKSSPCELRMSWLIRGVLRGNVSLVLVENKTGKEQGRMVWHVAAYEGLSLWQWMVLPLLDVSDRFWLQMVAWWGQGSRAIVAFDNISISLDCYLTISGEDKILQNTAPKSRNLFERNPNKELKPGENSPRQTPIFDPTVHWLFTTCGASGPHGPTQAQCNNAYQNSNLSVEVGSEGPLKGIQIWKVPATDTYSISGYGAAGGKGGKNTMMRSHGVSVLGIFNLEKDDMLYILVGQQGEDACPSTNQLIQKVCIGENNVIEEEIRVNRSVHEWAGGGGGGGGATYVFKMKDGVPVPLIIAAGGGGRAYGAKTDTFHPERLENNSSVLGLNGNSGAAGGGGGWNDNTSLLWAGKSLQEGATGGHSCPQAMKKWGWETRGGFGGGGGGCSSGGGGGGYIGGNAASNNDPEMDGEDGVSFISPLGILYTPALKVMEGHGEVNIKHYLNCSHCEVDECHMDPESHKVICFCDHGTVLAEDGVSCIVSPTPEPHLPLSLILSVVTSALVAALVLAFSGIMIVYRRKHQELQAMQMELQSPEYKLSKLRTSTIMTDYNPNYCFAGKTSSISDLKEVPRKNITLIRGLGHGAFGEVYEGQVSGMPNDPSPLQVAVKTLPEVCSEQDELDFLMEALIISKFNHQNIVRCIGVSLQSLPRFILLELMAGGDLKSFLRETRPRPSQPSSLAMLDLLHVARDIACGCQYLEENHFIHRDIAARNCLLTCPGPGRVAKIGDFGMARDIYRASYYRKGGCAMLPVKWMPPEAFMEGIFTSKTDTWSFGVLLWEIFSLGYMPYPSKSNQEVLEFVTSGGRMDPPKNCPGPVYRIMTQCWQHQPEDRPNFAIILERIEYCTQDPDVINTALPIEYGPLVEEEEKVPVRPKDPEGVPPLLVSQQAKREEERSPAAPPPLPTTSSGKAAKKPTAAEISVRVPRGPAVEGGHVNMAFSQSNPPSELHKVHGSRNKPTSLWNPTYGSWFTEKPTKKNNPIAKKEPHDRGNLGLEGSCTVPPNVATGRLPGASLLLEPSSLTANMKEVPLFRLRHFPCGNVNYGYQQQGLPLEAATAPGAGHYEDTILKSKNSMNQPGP
# [16] = molecular target: Insulin receptor (Homo sapiens) (UniProt P06213); test: Inhibition of INSR (unknown origin) at 10 uM
# [17] = molecular target: Proto-oncogene tyrosine-protein kinase receptor Ret (Homo sapiens) (UniProt P07949); test: Inhibition of RET (unknown origin) at 10 uM
# [18] = molecular target: Fibroblast growth factor receptor 2 (Homo sapiens) (UniProt P21802); test: Inhibition of FGFR2 (unknown origin) at 10 uM
# Sequence of Fibroblast growth factor receptor 2 (Homo sapiens) (P21802 22-821 limits assumed): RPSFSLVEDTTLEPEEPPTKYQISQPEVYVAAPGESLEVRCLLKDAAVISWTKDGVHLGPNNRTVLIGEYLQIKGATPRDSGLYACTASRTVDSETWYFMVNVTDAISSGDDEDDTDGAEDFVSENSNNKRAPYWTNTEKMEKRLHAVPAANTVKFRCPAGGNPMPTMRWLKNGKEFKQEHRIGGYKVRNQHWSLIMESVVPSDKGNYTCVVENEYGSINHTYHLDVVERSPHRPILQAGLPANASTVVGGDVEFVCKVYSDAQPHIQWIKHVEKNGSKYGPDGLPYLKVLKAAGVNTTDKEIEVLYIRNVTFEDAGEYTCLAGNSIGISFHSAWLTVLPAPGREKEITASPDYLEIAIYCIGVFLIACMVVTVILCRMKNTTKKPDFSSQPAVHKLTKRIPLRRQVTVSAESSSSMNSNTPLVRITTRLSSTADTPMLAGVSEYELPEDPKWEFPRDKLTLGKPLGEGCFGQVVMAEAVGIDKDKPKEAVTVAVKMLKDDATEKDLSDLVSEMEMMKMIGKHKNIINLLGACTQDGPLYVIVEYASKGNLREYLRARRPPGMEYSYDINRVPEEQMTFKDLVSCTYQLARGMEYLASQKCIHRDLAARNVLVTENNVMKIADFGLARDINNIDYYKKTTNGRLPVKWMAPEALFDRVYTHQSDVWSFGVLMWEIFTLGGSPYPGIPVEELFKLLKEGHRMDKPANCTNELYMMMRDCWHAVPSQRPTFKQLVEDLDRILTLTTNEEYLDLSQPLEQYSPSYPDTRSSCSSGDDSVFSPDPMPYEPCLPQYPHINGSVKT
# [19] = Hepatotoxicity in KM mouse assessed as alkaline phosphatase level at 100 mg/kg, IG qd administered for 7 days by automatic biochemical analyzer; format: toxicity, organism-based; conditions: in vivo, po, 168 h, time 7 day
# [20] = Acute toxicity in KM mouse assessed as cell damage or necrosis in spleen at 100 mg/kg, IG qa administered for 7 days and measured on day 8 by hematoxylin and eosin staining based assay; format: organism-based; conditions: in vivo, po, 192 h, time 8 day
# [21] = Acute toxicity in KM mouse assessed as cell damage or necrosis in lung at 100 mg/kg, IG qa administered for 7 days and measured on day 8 by hematoxylin and eosin staining based assay; format: organism-based; conditions: in vivo, po, 192 h, time 8 day
# [22] = test system: A549; test: Antitumor activity against human A549 cells overexpressing c-MET xenografted in BALB/c nude mouse assessed as reduction in tumor volume at 60 mg/kg, IG qod measured for 24 days; format: functional, organism-based; conditions: time 24.0 day
# [23] = test system: A549; test: Inhibition of colony formation in human A549 cells overexpressing c-MET at 2 uM preincubated for 48 hrs followed by media replacement for every 2 days for 14 days by crystal violet staining based microscopic analysis relative to control; format: functional
# [24] = test system: NCI-H1975; test: Inhibition of colony formation in human NCI-H1975 cells at 2 uM preincubated for 48 hrs followed by media replacement for every 2 days for 14 days by crystal violet staining based microscopic analysis relative to control; format: functional
# [25] = molecular target: T1, Epidermal growth factor receptor; test: biochemical
# Description: Inhibition of N-terminal GST tagged human recombinant EGFR (695 to end residues) expressed in baculovirus infected Sf9 cells using Poly (4:1 Glu, Tyr) as substrate incubated for 60 mins in presence of ATP by ADP-Glo luminescent assay
smiles,measurement,setting,value
C=CC(=O)Nc1cc2c(Oc3ccc(NC(=O)n4c(=O)c(-c5ccccc5)c(C)n4C)cc3F)cccc2cc1OC,Activity,[1],Dose-Dependent Effect
same,inhibition,[2],Dose-Dependent Effect
same,viability at 1 µM,[3],88.2%
same,Activity,[4],1.74%
same,Activity,[5],7.58%
same,Activity,[6],0.34%
same,Activity,[7],31.41%
same,Activity,[8],Dose-Dependent Effect
same,Activity,[9],Dose-Dependent Effect
same,Activity,[10],Dose-Dependent Effect
same,inhibition,[11],> 90%
same,inhibition,[12],Active
same,inhibition,[13],inactive
same,inhibition,[14],inactive
same,inhibition,[15],inactive
same,inhibition,[16],inactive
same,inhibition,[17],inactive
same,inhibition,[18],inactive
same,Activity,[19],> 60 U/L
same,Activity,[20],Non-Toxic
same,Activity,[21],Non-Toxic
same,Activity,[22],Active
same,inhibition at 2 µM,[23],~100%
same,inhibition at 2 µM,[24],~100%
same,IC50,[25],99.8 nM
